{"source": "ChEMBL document CHEMBL2074087", "about": "“Inhibition of the P-glycoprotein- and multidrug resistance protein-mediated efflux of anthracyclines and calceinacetoxymethyl ester by PAK-104P” (Eur J Pharmacol, 2000)", "target": "ATP-dependent translocase ABCB1 (Homo sapiens, UniProt P08183)", "sequence (P08183 whole entry)": "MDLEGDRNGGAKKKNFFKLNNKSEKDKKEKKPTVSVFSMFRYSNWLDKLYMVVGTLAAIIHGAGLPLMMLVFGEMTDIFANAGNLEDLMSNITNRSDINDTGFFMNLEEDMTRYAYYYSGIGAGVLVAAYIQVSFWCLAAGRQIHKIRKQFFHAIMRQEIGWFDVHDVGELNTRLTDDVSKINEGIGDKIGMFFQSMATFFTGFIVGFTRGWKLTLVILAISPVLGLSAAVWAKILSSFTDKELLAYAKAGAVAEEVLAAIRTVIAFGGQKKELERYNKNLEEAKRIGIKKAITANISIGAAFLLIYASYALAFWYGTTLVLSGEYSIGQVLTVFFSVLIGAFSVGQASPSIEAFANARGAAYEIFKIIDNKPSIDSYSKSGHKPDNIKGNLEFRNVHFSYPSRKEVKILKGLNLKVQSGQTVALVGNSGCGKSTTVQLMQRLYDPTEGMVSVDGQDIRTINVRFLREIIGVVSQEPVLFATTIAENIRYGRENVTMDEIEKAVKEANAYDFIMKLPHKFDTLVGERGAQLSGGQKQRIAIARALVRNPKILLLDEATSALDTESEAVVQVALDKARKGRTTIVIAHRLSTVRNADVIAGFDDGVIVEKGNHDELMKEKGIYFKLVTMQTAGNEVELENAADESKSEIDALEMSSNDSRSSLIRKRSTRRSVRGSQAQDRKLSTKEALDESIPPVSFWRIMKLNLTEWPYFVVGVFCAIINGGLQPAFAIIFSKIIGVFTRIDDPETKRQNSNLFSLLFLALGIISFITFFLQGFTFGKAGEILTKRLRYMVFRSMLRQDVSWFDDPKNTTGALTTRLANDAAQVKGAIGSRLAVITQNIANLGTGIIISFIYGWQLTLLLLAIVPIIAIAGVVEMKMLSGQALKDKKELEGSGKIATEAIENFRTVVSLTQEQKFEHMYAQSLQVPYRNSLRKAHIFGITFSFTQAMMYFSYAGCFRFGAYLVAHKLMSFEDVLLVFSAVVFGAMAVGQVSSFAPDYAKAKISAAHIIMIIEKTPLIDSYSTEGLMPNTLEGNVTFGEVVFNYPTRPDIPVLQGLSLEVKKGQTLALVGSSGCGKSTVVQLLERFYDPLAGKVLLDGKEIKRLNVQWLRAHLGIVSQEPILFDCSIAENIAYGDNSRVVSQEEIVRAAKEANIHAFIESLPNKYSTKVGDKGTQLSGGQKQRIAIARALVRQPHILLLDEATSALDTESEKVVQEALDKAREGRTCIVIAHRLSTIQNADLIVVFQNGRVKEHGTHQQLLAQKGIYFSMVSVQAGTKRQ", "experiment": "TP_TRANSPORTER: inhibition of Hydroxydoxorubicin efflux in K562/Adr cells", "assay_type": "functional, cell-based", "data": [{"smiles": "Cc1nc(C)c(P2(=O)O[C@H](C)C[C@@H](C)O2)c(-c2cccc([N+](=O)[O-])c2)c1C(=O)OCCN1CCN(C(c2ccccc2)c2ccccc2)CC1", "note": "(stereo partly specified)", "values": [{"measurement": "Ki", "result": 210, "unit": "nM"}]}]}
